As usually defined, the Ki is the dissociation constant of the complex between target and ligand, obtained from inhibition or displacement.

For assay [1], the system named is THP-1 macrophages. Kind of assay: Phagocytosis of IgG-opsonized sheep RBCs by THP-1 macrophages. The assay is classed as cell-based, human. As for the experimental part:
FIG. 5, comprising FIGS. 5A-5D, illustrates human macrophages and monocytes inhibited by human-CD47. FIG. 5A depicts DIC images of THP-1 phagocytes plus CD47-blocked, IgG-opsonized human-RBC, using F(ab′)2 made from monoclonal B6H12. The scale bars are […]. FIG. 5B depicts human peripheral blood monocyte plus CD47-blocked human-RBC following lysis after 45 min of phagocytosis: PKH26 labeled human RBC are depicted in the right hand panel: Lysed RBC labeled with FITC-anti-Fc indicates the cell is not internalized. Human-RBC and Sheep-RBC were phagocytosed by THP-1 cells in FIG. 5C, or human monocytes in FIG. 5D, depicting phagocytosis increases with opsonization. Inset depicts blebbistatin treatment of ShRBC showing decrease in phagocytosis. Phagocytosis is measured as the ratio of internalized RBCs per phagocyte with 200 phagocytes counted in triplicate experiments (±SEM).
FIG. 7 illustrates that myosin increases the efficiency of phagocytosis. Phagocytosis of IgG-opsonized sheep-RBC were measured as a ratio of internalized RBCs per phagocyte with 200 phagocytes counted in triplicate experiments (±SEM). The level of NMM IIA activity is normalized to WT levels in THP-1, with relative levels of knockdown or overexpression quantified by immunofluorescence and Western blot. Results for phagocytosis of the IgG-opsonized sheep-RBC were fit to a line; where the intercept approximates the result for human-RBC. The inset bar graph depicts blebbistatin inhibition of ShRBC phagocytosis by GFP-NMMIIA expressing WT THP-1.
Phagocytosis by the human-derived THP-1 macrophages of IgG-opsonized RBCs was studied by imaging in DIC microscopy. […] RBC membranes were prelabeled with PKH26, and non-engulfed RBCs were labeled with a fluorescein-labeled antibody against the Fc of the IgG-opsonin. […] A small number of human RBCs were engulfed for either type of phagocyte. […]
In light of the myosin differences seen by fluorescence at the various synapses (FIGS. 2-4), the effect of blebbistatin-inhibited myosin on phagocytosis was studied. […]

Assay [2] concerns non-muscle myosin IIA at the phagocytic synapse of THP-1 macrophages. The assay can be described thus: Protein localization to the phagocytic synapse (immunofluorescence). The assay is classed as cell-based, human. The conditions noted are these: blebbistatin 50 μM, 10 min pre-incubation. As for the experimental part: FIG. 4, comprising FIGS. 4A-4B, illustrates CD47 inhibiting myosin localization as similar to blebbistatin. Phagocytic synapses of THP-1 macrophages with IgG-opsonized sheep- or human-RBC (37° C., 10 min) after pre-incubation with blebbistatin (50 μM, 10 min). DMSO was used as a control. FIG. 4A depicts cells fixed and immunostained for non-muscle myosin IIA, F-actin, and Paxillin-Y^118. The scale bars are […]. FIG. 4B depicts quantitation of protein localization to the phagocytic synapse relative to the cytoplasmic intensity set at 1.0 (n=5 cells, ±SD). For cytoskeletal involvement at the phagocytic synapse, streptavidin beads opsonized with rabbit anti-streptavidin FITC. Opsonized beads of different sizes were added to THP-1 cells, PMA treated and immediately placed at 4° C. for 10 min to synchronize phagocytosis. […] For studies involving blebbistatin (EMD Biosciences), macrophages were treated for 10 min at 4° C. prior to temperature increase to 37° C. or for 45 min and 37° C. Macrophages treated with DMSO were used to verify no solvent effects. Immunostaining was performed by permeabilization with 0.1% Triton X-100 in PBS for 20 min before blocking for 1 h with 5% BSA in PBS. Staining with primary antibodies was carried out for 1 h at room temperature in PBS. […] Samples were analyzed by differential interference contrast (DIC) and fluorescence microscopy. […]

For `Cc1ccc2c(c1)C(=O)C1(O)CCN(c3ccccc3)C1=N2` (stereo not shown) [blebbistatin], the “inhibition of ShRBC phagocytosis by GFP-NMM IIA expressing THP-1” value in assay [1] (5 μM blebbistatin) was about 50%. For the same compound, the “engulfment of sheep RBCs by THP-1 macrophages” value in assay [1] (blebbistatin treatment, FIG. 5C) is “inhibited by blebbistatin to an extent similar to that of CD47 on human RBCs”. For the same compound, the Ki in assay [1] (engulfment of sheep RBCs by THP-1 macrophages, dose-response (not shown), read-out: Ki-blebb for blebbistatin inhibition of phagocytosis) was 5 µM. Moreover, the “enrichment of NMM IIA at synaptic contacts with sheep RBC targets” value in assay [2] is recorded as “inhibited enrichment of NMM IIA”.

Values taken from patent US20110105380A1, “Protection of Nano-Scale Particles from Immune Cell Uptake” (THE TRUSTEES OF THE UNIVERSITY OF PENNSYLVANIA, priority 2009, published 2011).
